From ChEMBL document CHEMBL1133377, “1-[2-(Diphenylmethoxy)ethyl]-2-methyl-5-nitroimidazole: a potent lead for the design of novel NNRTIs” (Bioorg Med Chem Lett, 2000)

Columns and labels:
MT4 = assay: Compound dose required to achieve protection of MT-4 cells from HIV-1 induced cytopathicity using MTT method; type: functional, cell-based; details: Homo sapiens
[1] = molecular target: Human immunodeficiency virus type 1 reverse transcriptase (Human immunodeficiency virus 1, UniProt Q72547); assay: Compound dose required to inhibit HIV-1 reverse transcriptase enzyme(rRT) activity
[2] = Compound dose required to reduce viability of mock infected cells using MTT method; type: functional
[3] = Selectivity index is ratio of CC50 to that of EC50; type: functional

Structure (SMILES) | EC50 (MT4) | IC50 [1] | CC50 [2] | S.I [3]
Cc1ncc([N+](=O)[O-])n1CCOC(c1ccccc1)c1ccc(F)cc1 (centres undefined) | 0.9 µM | 2.3 µM | > 200 µM | 222
Cc1ncc([N+](=O)[O-])n1CCOC(c1ccccc1)c1ccccc1 | 0.2 µM | 0.05 µM | > 200 µM | > 1000
Cc1ncc([N+](=O)[O-])n1CCOC(c1ccccc1)c1ccc(Cl)cc1Cl (centres undefined) | 1.5 µM | 1.4 µM | 54 µM | 36
Cc1ccc(C(OCCn2c([N+](=O)[O-])cnc2C)c2ccccc2)cc1 (centres undefined) | 1.4 µM | 2.1 µM | 86 µM | 61
Cc1ncc([N+](=O)[O-])n1CCOC(c1ccccc1)c1ccc(Cl)cc1 (centres undefined) | 12.5 µM |  | > 200 µM | > 16
Cc1ccnc2c1NC(=O)c1cccnc1N2C1CC1 [NEVIRAPINE] |  |  | > 300 µM | > 1000
Cc1ncc([N+](=O)[O-])n1CCOC(c1ccccc1)c1ccc(-c2ccccc2)cc1 (centres undefined) | 17 µM |  | > 200 µM | 12
Cc1ncc([N+](=O)[O-])n1CCOC(c1ccccc1)c1ccc(C(C)(C)C)cc1 (centres undefined) | 4 µM | 1.5 µM | 44 µM | 11
Clc1ccc(C(OCCn2ccnc2)c2ccccc2)c(Cl)c1 (centres undefined) | > 31 µM |  | 31 µM | 
Clc1ccc(C(OCCn2ccnc2)c2ccc(Cl)cc2Cl)cc1 (centres undefined) | > 26 µM |  | 26 µM | 
c1ccc(C(OCCn2ccnc2)c2ccccc2)cc1 | > 100 µM |  | 100 µM | 
